Reference: patent US20090030088A1, “Therapeutic benefits of gossypol, 6-methoxy gossypol, and 6,6'-dimothxy gossypol” (Clemson University, priority 2007, published 2009)

Assays:
[1] = DPPH free radical scavenging assay; details: for concentration to scavenge 50% free radicals (IC50 value): DPPH in DCM, 30 min
Experimental: DPPH Free Radical Scavenging Assay. Scavenging activities on DPPH free radicals by gossypol and methoxy gossypol derivatives were determined according to the method of (9) with slight modification. The reaction mixture was made by mixing 0.4 mL of sample solution in DCM and same volume of 0.25 mM DPPH in DCM, shaken vigorously, incubated for 30 min in the dark at room temperature, and measured spectrophotometrically at 517 nm. BHT, a common used antioxidant, was used as a standard for comparison. The lower absorbance of reaction mixture indicated higher free radical scavenging activity, and the reduction of DPPH free radicals was calculated as following: […]

[2] = system: Caco-2 (human colon cancer cell line); assay: Cancer cell proliferation assay (CellTiter 96), Caco-2; type: cell-based; details: 10 ppm
Experimental: (§1) Anticancer Activities. Three cancer cell lines, MCF-7 (human breast cancer cell line), Caco-2 (human colon cancer cell line) and SiHa (cervical cancer cell line) were purchased from American Type Culture Collection (ATCC) (Rockville, Md.). MCF-7 and SiHa were cultured in RPMI-1640 with L-glutamine (2 mM), sodium pyruvate (1 mM), penicillin (100 unit/mL), streptomycin (0.1 mg/mL), 0.1 mM non-essential amino acids, 2.0 g/L sodium bicarbonate and 10% newborn calf serum. For Caco-2 cells, 10% fetal bovine serum was added instead of 10% newborn calf serum. All cell lines were incubated at 37° C. with 5% CO2 and 90-100% relative humidity. Medium renewal was carried out 2-3 times per week, and cells were subcultured when they were about 80-90% confluence.
(§2) Prior to chemical treatment, 10^4 cells/well (100 μL) were seeded into a 96-well tissue culture plate, and allowed to attach for 24 hours, then treated with defined concentrations of the tested chemicals in DMSO. Negative controls were cells treated with DMSO only, and DMSO concentration was kept 2% in each well. After 24 hour incubation, cell proliferation was determined using the CellTiter 96® aqueous nonradioactivity cell proliferation assay according to the manufacture's recommendations (Promega, Madison, Wis.) and recorded on universal EL800 Bio-Tek microplate reader at 490 nm.

Trypanosome brucei cells = assay: Anti-trypanosomal activity, relative cell viability by flow cytometry; type: cell-based
Experimental: Anti-trypanosomal activities. Trypanosome brucei cells were grown in HMI-9 medium supplemented with 10% heat-inactivated fetal bovine serum and cultured as described by (13). Prior to treatment, 200 μL of the cells were seeded into 96-well tissue culture plate and treated with 2 μL of gossypol or methoxy gossypol derivatives dissolved in DMSO. After 24 hour incubation at 37° C. with 5% CO2 and 90-100% relative humidity, the cells were counted on a Becton Dickinson FACScan flow Cytometer, and the relative cell viability was calculated by comparing the vital cell number with control wells treated only with DMSO. Statistical Analysis. Each experiment was done at least three times, mean values were average of the triplicates, and the data were subjected to the analysis of variance (ANOVA).

[3] = system: SiHa (cervical cancer cell line); assay: Cancer cell proliferation assay (CellTiter 96), SiHa; type: cell-based; details: 10 ppm
Experimental: as §1, §2

[4] = system: MCF-7 (human breast cancer cell line); assay: Cancer cell proliferation assay (CellTiter 96), MCF-7; type: cell-based; details: 10 ppm
Experimental: as §1, §2

plasmid DNA = assay: DNA strand scission assay (H2O2/UV hydroxyl radicals); design: species or system E. coli; details: no oxidative stress
Experimental: Analysis of DNA Strand Breakage. The DNA strand scission assay was performed as described by Keum et al., (11) with minor modifications. The plasmid DNA was prepared and purified from E. coli cultures by the method (12). The reaction mixture (15 μL) contained 10 mM Tris-HCl, 1 mM EDTA buffer (pH 8.0), plasmid DNA (1 μL), and H2O2 (0.04 M). Gossypol and methoxy gossypol derivatives dissolved in DMSO at the defined concentrations were added prior to H2O2 addition. Hydroxyl radicals were generated by irradiation of the reaction mixture at a distance of 30 cm with a 12 W UV lamp. After incubation at room temperature for 30 min, the reaction was stopped by adding a loading buffer (0.25% bromophenol blue tracking dye and 40% sucrose), and analyzed by 1% agarose gel electrophoresis. The gel was visualized by staining with ethidium bromide, and photographed on a transiluminator (Biorad).

For COc1c(O)c(C=O)c2c(O)c(-c3c(C)cc4c(C(C)C)c(O)c(O)c(C=O)c4c3O)c(C)cc2c1C(C)C [6-methoxy gossypol], the “concentration to scavenge 50% free radicals (IC50 value)” value [1] was 16.4 ppm, the free radicals scavenged ([1]; compound at 20 ppm) was 60% and the “cancer inhibitive activity compared with gossypol” value [2] was “higher cancer inhibitive activity than gossypol”. For the same compound, the “inhibition of trypanosome cell growth” value (Trypanosome brucei cells; 1 ppm, 24 hour incubation) was 40%, the “cancer inhibitive activity compared with gossypol” value [3] was “higher cancer inhibitive activity than gossypol” and the “cancer inhibitive activity compared with gossypol” value [4] was “higher cancer inhibitive activity than gossypol”. For the same compound, the “DNA damage by the presence of the chemical alone” value (plasmid DNA) was “did not cause the DNA damage”.

With Cc1cc2c(C(C)C)c(O)c(O)c(C=O)c2c(O)c1-c1c(C)cc2c(C(C)C)c(O)c(O)c(C=O)c2c1O [gossypol] the inhibition at 1 ppm (Trypanosome brucei cells; 24 h, read-out: inhibition of trypanosome cell growth) was 40% and the “DNA damage by the presence of the chemical alone” value (plasmid DNA) was “did not cause the DNA damage”.

In the case of COc1c(O)c(C=O)c2c(O)c(-c3c(C)cc4c(C(C)C)c(OC)c(O)c(C=O)c4c3O)c(C)cc2c1C(C)C [6,6′-dimethoxy gossypol], the “concentration to scavenge 50% free radicals (IC50 value)” value [1] is reported as 16.8 ppm, the free radicals scavenged ([1]; compound at 20 ppm) is reported as 60% and the “cancer inhibitive activity compared with gossypol” value [2] is reported as “higher cancer inhibitive activity than gossypol”. For the same compound, the “cancer inhibitive activity compared with gossypol” value [3] was “higher cancer inhibitive activity than gossypol” and the “cancer inhibitive activity compared with gossypol” value [4] was “higher cancer inhibitive activity than gossypol”.

Compound Cc1cc(C(C)(C)C)c(O)c(C(C)(C)C)c1 [BHT, butylated hydroxytoluene, reference compound] has a free radicals scavenged ([1]; BHT at 1000 ppm) of ~60% and a free radicals scavenged ([1]; BHT at 1500 ppm) of 75%.
